The test system of one data set is HIV-1-GFP. Kind of data set: microbe, parasite or virus in culture. Format: cell-based. The procedure:
H9 and Jurkat cells (6 × 10^5 cells/mL) were treated with increasing concentrations of nucleoside analogues (0–200 μM; except CFB, 0–1.6 μM) and incubated for 4 h at 37 °C in 5% CO2. Cells were then infected with HIV-1-GFP by spinoculation at 800 × g for 90 min in the presence of 1 μg/mL polybrene, and further incubated at 37 °C in 5% CO2 for 72 h. Undifferentiated U937 and THP-1 (PMA^−) cells (6 × 10^5 cells/mL) were treated with increasing concentrations of nucleoside analogues (0–200 μM; except CFB, 0–1.6 μM) and incubated at 37 °C in 5% CO2 for 48 h. Cells were then infected with HIV-1-GFP by spinoculation at 800 × g for 90 min in the presence of 1 μg/mL polybrene, and further incubated at 37 °C in 5% CO2 for 72 h. Non-dividing U937 and THP-1 (PMA^+) cells (6 × 10^5 cells/mL) were differentiated by addition of 100 nM PMA (PMA^+) for 48 h and treated with increasing concentrations of nucleoside analogues as described above. Cells were then infected with HIV-1-GFP in the presence of 1 μg/mL polybrene and further incubated at 37 °C in 5% CO2 for 72 h. The percentage of GFP^+cells was determined by one-colour flow cytometry using a Fortessa X20 analyser (BD Biosciences) and the data analysed using the FlowJo software suite.
(§1) Non-ambiguous values were subjected to a replicate test to calculate confidence intervals of 95% (95% CI). CC50 and EC50 values were determined for at least two independent experiments for each nucleoside analogue and a selectivity index (SI) also calculated, (SI = CC50/EC50). EC50 values for each replicate were used to perform an unpaired two-tailed t-test to determine significant differences between U937 cells expressing SAMHD1 wt or HD206-7AA mutant and THP-1 cells expressing Vpx or untransduced cells. P values of <0.005 were considered statistically significant.

The next data set is described as follows: in vitro. The class given is cell-based. The settings on record: human. How it is done:
H9, Jurkat and undifferentiated U937 and THP-1 (PMA^−) cells (6 × 10^5 cells/mL) were treated with increasing concentrations of nucleoside analogues (0–200 μM; except CFB, 0–1.6 μM) and incubated at 37 °C in 5% CO2 for 48 h. Medium was then replaced and cells were further incubated for 72 h. Non-dividing U937 and THP-1 (PMA^+) cells (6 × 10^5 cells/mL) were differentiated by addition of 100 nM phorbol-12-myristate-13-acetate (PMA^+) for 48 h and then treated with increasing concentrations of nucleoside analogues as described above. The percentage of live cells was determined by flow cytometry using Live/Dead fixable blue-fluorescent dyes (Invitrogen) and a Fortessa X20 analyser (BD Biosciences). Data were analysed using the FlowJo software suite.
as §1, with “The cytotoxic concentration of nucleoside analogue that inhibits cell viability by 50% (CC50) and the effective concentration of nucleoside analogue that inhibits infection of cells by 50% (EC50) were calculated for each independent experiment by non-linear regression using GraphPad Prism v6.00 for Windows (GraphPad Software, San Diego, CA). Non-ambiguous” for “Non-ambiguous”

Where [1] appears, read: Human immunodeficiency virus 1, THP-1, read-out: EC50 [95% CI], THP1 PMA+.
Setting [2] is: Human immunodeficiency virus 1, THP-1, read-out: EC50 [95% CI], THP1 PMA−.
Setting [3] is: Human immunodeficiency virus 1, U-937, read-out: EC50 [95% CI], U937 PMA+.
[4] abbreviates: Human immunodeficiency virus 1, U-937, read-out: EC50 [95% CI], U937 PMA−.

pEC50: −log10 of the molar value. Read-outs that look alike come from different tables or passages of the source. A value given as a limit tells only on which side of the number the result lay.

One may read the pEC50 as the EC50 on a negative log10 scale, so that one unit is a factor of ten. As for `Cc1nnc(C(=O)NC(C)(C)c2nc(C(=O)NCc3ccc(F)cc3)c(O)c(=O)n2C)o1` [RAL, Raltegravir], the pEC50 with HIV-1-GFP (setting [1]) is 7.43; with HIV-1-GFP (setting [2]), 7.36; with HIV-1-GFP (setting [3]), 7.20; in the data set with HIV-1-GFP (setting [4]), 7.89. Besides, the “SI, selectivity index CC50/EC50” value was over 5405 with HIV-1-GFP (THP-1 PMA+), over 4545 in the data set on HIV-1-GFP (THP-1 PMA−), over 3175 with HIV-1-GFP (U937 PMA+) and over 15385 in the data set with HIV-1-GFP (U937 PMA−).

As usually defined, the CC50 is the concentration at which the toxic effect on the cells reaches its halfway point. Lower therefore signals harm at low concentration. As to `Cc1cn([C@H]2C=C[C@@H](CO)O2)c(=O)[nH]c1=O` [d4T, 2′,3′-didehydro-2′,3′-dideoxythymidine], the negative logarithm of the EC50 (pEC50) in the data set on HIV-1-GFP (setting [1]) is 5.40; in the data set on HIV-1-GFP (setting [2]), 5.21; in the data set on HIV-1-GFP (setting [3]) it was 5.15; with HIV-1-GFP (setting [4]) it was 5.18. The “fold increase of anti-HIV-1 activity in PMA+ over PMA− cells” value with HIV-1-GFP (THP-1) is 2 fold. Besides, the “SI, selectivity index CC50/EC50” value with HIV-1-GFP (THP-1 PMA+) is over 51; in the data set with HIV-1-GFP (THP-1 PMA−), over 32; in the data set with HIV-1-GFP (U937 PMA+) it was over 28; in the data set on HIV-1-GFP (U937 PMA−) it was over 31. Moreover, in “in vitro”, the CC50 at 48 h is over 200 µM.

For the compound `Cc1ccnc2c1NC(=O)c1cccnc1N2C1CC1` [NVP, Nevirapine], the pEC50 in the data set on HIV-1-GFP (setting [1]) is 6.66; with HIV-1-GFP (setting [2]) it was 6.43; with HIV-1-GFP (setting [3]), 6.93; in the data set with HIV-1-GFP (setting [4]), 6.30. The “SI, selectivity index CC50/EC50” value in the data set with HIV-1-GFP (THP-1 PMA+) was over 913; with HIV-1-GFP (THP-1 PMA−), over 542; in the data set on HIV-1-GFP (U937 PMA+) it was over 1695; in the data set on HIV-1-GFP (U937 PMA−), over 396.

Turning to `Nc1nc2c(ncn2COCCO)c(=O)[nH]1` [ACV, Acycloguanosine], the negative logarithm of the EC50 (pEC50) in the data set with HIV-1-GFP (setting [1]) is 6.18; in the data set with HIV-1-GFP (setting [2]) it was under 3.70; in the data set with HIV-1-GFP (setting [3]), 4.28; in the data set with HIV-1-GFP (setting [4]) it was under 3.70. Also, the entries for the “SI, selectivity index CC50/EC50” value in the data set with HIV-1-GFP (THP-1 PMA+) and in the data set on HIV-1-GFP (U937 PMA+) were over 304 and over 4, respectively.

`Nc1nc(O)c2ncn(COC(CO)CO)c2n1` [GCV, 2′-Nor-2′-deoxyguanosine]: the pEC50 with HIV-1-GFP (setting [1]) is 6.44; in the data set with HIV-1-GFP (setting [2]), under 3.70; in the data set on HIV-1-GFP (setting [3]), under 3.70; in the data set on HIV-1-GFP (setting [4]) it was under 3.70. Besides, in the data set with HIV-1-GFP (THP-1 PMA+), the “SI, selectivity index CC50/EC50” value is reported as over 545.

The values are drawn from publication PMC5318888, “SAMHD1 enhances nucleoside-analogue efficacy against HIV-1 in myeloid cells” (Scientific Reports, 2017).
